Target: T1, BTK protein (Homo sapiens, UniProt Q06187)
T1 construct: endogenous in cells; host or cells: TMD-8 cells
Experiment: Measurement of BTK protein degradation ability in TMD-8 cells (Western blotting)
Type: cell-based
Details: harvested after 24 hours; for BTK degradation (%) 1 nM: compound 1 nM; for BTK degradation (%) 10 nM: compound 10 nM; for BTK degradation (%) 100 nM: compound 100 nM
Summary of the method: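 BTK levels were measured by immunoblotting of equal-protein RIPA lysates, normalized to GAPDH or β-actin, with chemiluminescent or infrared detection. Lysates came from TMD-8 cells exposed to compound for 24 h at final concentrations of 0.1, 1, 10 μM or 0.0001–0.1 μM, against a DMSO control.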

T1 sequence (Q06187 whole entry): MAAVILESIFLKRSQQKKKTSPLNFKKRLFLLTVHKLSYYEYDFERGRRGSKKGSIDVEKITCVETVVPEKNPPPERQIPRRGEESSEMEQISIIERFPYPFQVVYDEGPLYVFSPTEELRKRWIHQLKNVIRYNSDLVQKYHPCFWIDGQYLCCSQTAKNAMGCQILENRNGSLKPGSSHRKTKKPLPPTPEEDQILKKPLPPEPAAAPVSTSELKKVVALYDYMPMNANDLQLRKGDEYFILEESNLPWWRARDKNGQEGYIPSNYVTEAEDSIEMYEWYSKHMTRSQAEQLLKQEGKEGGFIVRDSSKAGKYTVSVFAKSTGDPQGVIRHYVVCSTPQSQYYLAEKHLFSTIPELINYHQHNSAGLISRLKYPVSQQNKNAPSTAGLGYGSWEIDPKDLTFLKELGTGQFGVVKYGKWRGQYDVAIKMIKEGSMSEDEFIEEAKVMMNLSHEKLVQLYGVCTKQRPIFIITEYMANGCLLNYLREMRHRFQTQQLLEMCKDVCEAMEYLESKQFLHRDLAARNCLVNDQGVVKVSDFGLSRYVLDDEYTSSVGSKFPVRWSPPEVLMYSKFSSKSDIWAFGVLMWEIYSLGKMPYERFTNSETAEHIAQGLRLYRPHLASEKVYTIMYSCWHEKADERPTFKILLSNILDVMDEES

Cc1cc(-c2ccnc(Nc3cnn(C4CCN(CC5CCN(C(=O)c6cccc(NC7CCC(=O)NC7=O)c6)CC5)CC4)c3)n2)ccc1CNC(=O)N1CC(OC(C)C)C1 (stereo not shown) [Example 91, N-(4-(2-((1-(1-((1-(3-((2,6-dioxopiperidin-3-yl)amino)benzoyl)piperidin-4-yl)methyl)piperidin-4-yl)-1H-pyrazol-4-yl)amino)pyrimidin-4-yl)-2-methylbenzyl)-3-isopropoxyazetidine-1-carboxamide]
BTK degradation (%) 1 nM: 4.5% | BTK degradation (%) 10 nM: 68.5% | BTK degradation (%) 100 nM: 95.0%

Cc1cc(-c2ccnc(Nc3ccc(N4CCC(CN5CCN(c6ccc(OC7CCC(=O)NC7=O)cn6)CC5)CC4)cc3)n2)ccc1CNC(=O)N1CC(OC(C)C)C1 (stereo not shown) [Example 125, N-(4-(2-((4-(4-((4-(5-((2,6-dioxopiperidin-3-yl)oxy)pyridin-2-yl)piperazin-1-yl)methyl)piperidin-1-yl)phenyl)amino)pyrimidin-4-yl)-2-methylbenzyl)-3-isopropoxyazetidine-1-carboxamide]
BTK degradation (%) 1 nM: 14.7% | BTK degradation (%) 10 nM: 85.0% | BTK degradation (%) 100 nM: 99.3%

Cc1c(NC(=O)N2CC(OC(C)C)C2)cc(F)cc1-c1ccnc(Nc2ccc(N3CCN(CC4CCN(c5ccc6c(c5)C(=O)N(C5CCC(=O)NC5=O)C6=O)CC4)CC3)cc2)n1 (stereo not shown) [Example 23, N-(3-(2-((4-(4-((1-(2-(2,6-dioxopiperidin-3-yl)-1,3-dioxoisoindolin-5-yl)piperidin-4-yl)methyl)piperazin-1-yl)phenyl)amino)pyrimidin-4-yl)-5-fluoro-2-methylphenyl)-3-isopropoxyazetidine-1-carboxamide]
BTK degradation (%) 10 nM: 72% | BTK degradation (%) 100 nM: 91.5%

COc1ccc(C(=O)N2CCC(CN3CCN(c4ccc(Nc5nccc(-c6ccc(CNC(=O)N7CC(OC(C)C)C7)c(C)c6)n5)cc4)CC3)CC2)cc1N1CCC(=O)NC1=O [Example 86, N-(4-(2-((4-(4-((1-(3-(2,4-dioxotetrahydropyrimidin-1 (2H)-yl)-4-methoxybenzoyl)piperidin-4-yl)methyl)piperazin-1-yl)phenyl)amino)pyrimidin-4-yl)-2-methylbenzyl)-3-isopropoxyazetidine-1-carboxamide]
BTK degradation (%) 1 nM: 22% | BTK degradation (%) 10 nM: 90% | BTK degradation (%) 100 nM: 97.5%

Cc1cc(-c2ccnc(Nc3ccc(N4CCN(CC5CCN(c6cccc(N7CCC(=O)NC7=O)c6)CC5)CC4)cc3)n2)ccc1CNC(=O)c1cnn(C(C)C)c1 [Example 80, N-(4-(2-((4-(4-((1-(3-(2,4-dioxotetrahydropyrimidin-1 (2H)-yl)phenyl)piperidin-4-yl)methyl)piperazin-1-yl)phenyl)amino)pyrimidin-4-yl)-2-methylbenzyl)-1-isopropyl-1H-pyrazole-4-carboxamide]
BTK degradation (%) 1 nM: 73.5% | BTK degradation (%) 10 nM: 98.0% | BTK degradation (%) 100 nM: 99.5%

Cc1cc(-c2ccnc(Nc3ccc(N4CCC(C(=O)N5CCC(c6ccc(NC7CCC(=O)NC7=O)cc6)CC5)CC4)cc3)n2)ccc1CNC(=O)N1CC(OC(C)C)C1 (stereo not shown) [Example 117, N-(4-(2-((4-(4-(4-(4-((2,6-dioxopiperidin-3-yl)amino)phenyl)piperidine-1-carbonyl)piperidin-1-yl)phenyl)amino)pyrimidin-4-yl)-2-methylbenzyl)-3-isopropoxyazetidine-1-carboxamide]
BTK degradation (%) 1 nM: 24.0% | BTK degradation (%) 10 nM: 87.5% | BTK degradation (%) 100 nM: 99.0%

Cc1cc(-c2ccnc(Nc3ccc(N4CCC(CN5CCC(c6ccc(NC7CCC(=O)NC7=O)cc6)CC5)CC4)cc3)n2)ccc1CNC(=O)c1cnn(C(C)(C)C)c1 (stereo not shown) [Example 135, 1-(tert-butyl)-N-(4-(2-((4-(4-((4-(4-((2,6-dioxopiperidin-3-yl)amino)phenyl)piperidin-1-yl)methyl)piperidin-1-yl)phenyl)amino)pyrimidin-4-yl)-2-methylbenzyl)-1H-pyrazole-4-carboxamide]
BTK degradation (%) 1 nM: 59.0% | BTK degradation (%) 10 nM: 94.5% | BTK degradation (%) 100 nM: 99.0%

Cc1cc(-c2ccnc(Nc3ccc(N4CCC(CN5CCC(c6ccc(NC7CCC(=O)NC7=O)cc6)CC5)CC4)cc3)n2)ccc1CNC(=O)c1cnn(C(C)C)c1 (stereo not shown) [Example 134, N-(4-(2-((4-(4-((4-(4-((2,6-dioxopiperidin-3-yl)amino)phenyl)piperidin-1-yl)methyl)piperidin-1-yl)phenyl)amino)pyrimidin-4-yl)-2-methylbenzyl)-1-isopropyl-1H-pyrazole-4-carboxamide]
BTK degradation (%) 1 nM: 58.5% | BTK degradation (%) 10 nM: 93.5% | BTK degradation (%) 100 nM: 98.5%

Cc1cc(-c2ccnc(Nc3ccc(N4CCN(CC5CN(c6ccc7c(c6)C(=O)N(C6CCC(=O)NC6=O)C7=O)C5)CC4)cc3)n2)ccc1CNC(=O)N1CC(OC(C)C)C1 (stereo not shown) [Example 11, N-(4-(2-((4-(4-((1-(2-(2,6-dioxopiperidin-3-yl)-1,3-dioxoisoindolin-5-yl)azetidin-3-yl)methyl)piperazin-1-yl)phenyl)amino)pyrimidin-4-yl)-2-methylbenzyl)-3-isopropoxyazetidine-1-carboxamide]
BTK degradation (%) 1 nM: 60% | BTK degradation (%) 10 nM: 93.5% | BTK degradation (%) 100 nM: 98.5%

Cc1cc(-c2ccnc(Nc3ccc(N4CCN(CC5CCN(c6ccc7c(c6)C(=O)N(C6CCC(=O)NC6=O)C7=O)CC5)CC4)cc3)n2)ccc1COC(=O)N1CC(OC(C)C)C1 (stereo not shown) [Example 30, 4-(2-((4-(4-((1-(2-(2,6-dioxopiperidin-3-yl)-1,3-dioxoisoindolin-5-yl)piperidin-4-yl)methyl)piperazin-1-yl)phenyl)amino)pyrimidin-4-yl)-2-methylbenzyl 3-isopropoxyazetidine-1-carboxylate]
BTK degradation (%) 1 nM: −1% | BTK degradation (%) 10 nM: 20.5% | BTK degradation (%) 100 nM: 91.5%

Cc1cc(-c2ccnc(Nc3ccc(C4CCN(CC5CCN(c6ccc(OC7CCC(=O)NC7=O)cc6)CC5)CC4)cc3)n2)ccc1CNC(=O)N1CC(OC(C)C)C1 (stereo not shown) [Example 47, N-(4-(2-((4-(1-((1-(4-((2,6-dioxopiperidin-3-yl)oxy)phenyl)piperidin-4-yl)methyl)piperidin-4-yl)phenyl)amino)pyrimidin-4-yl)-2-methylbenzyl)-3-isopropoxyazetidine-1-carboxamide]
BTK degradation (%) 1 nM: 22.5% | BTK degradation (%) 10 nM: 93.5% | BTK degradation (%) 100 nM: 99.5%

Cc1cc(-c2ccnc(Nc3ccc(N4CCN(CC5CCN(c6ccc7c(c6)C(=O)N(C6CCC(=O)NC6=O)C7=O)CC5)CC4)cc3)n2)ccc1CNC(=O)c1cnn(C(C)(C)C)c1 (stereo not shown) [Example 8, 1-(tert-butyl)-N-(4-(2-((4-(4-((1-(2-(2,6-dioxopiperidin-3-yl)-1,3-dioxoisoindolin-5-yl)piperidin-4-yl)methyl)piperazin-1-yl)phenyl)amino)pyrimidin-4-yl)-2-methylbenzyl)-1H-pyrazole-4-carboxamide]
BTK degradation (%) 10 nM: 89.5% | BTK degradation (%) 100 nM: 97.5%

Cc1cc(-c2ccnc(Nc3ccc(N4CCN(CC5CCN(CC(=O)Nc6cccc(NC7CCC(=O)NC7=O)c6)CC5)CC4)cc3)n2)ccc1CNC(=O)N1CC(OC(C)C)C1 (stereo not shown) [Example 105, N-(4-(2-((4-(4-((1-(2-((3-((2,6-dioxopiperidin-3-yl)amino)phenyl)amino)-2-oxoethyl)piperidin-4-yl)methyl)piperazin-1-yl)phenyl)amino)pyrimidin-4-yl)-2-methylbenzyl)-3-isopropoxyazetidine-1-carboxamide]
BTK degradation (%) 1 nM: 35% | BTK degradation (%) 10 nM: 91.5% | BTK degradation (%) 100 nM: 98%

Cc1cc(-c2ccnc(Nc3ccc(N4CCN(CC5CCN(c6cccc(N7CCC(=O)NC7=O)c6)CC5)CC4)cc3)n2)ccc1CNC(=O)N1CC(OC(C)C)C1 [Example 65, N-(4-(2-((4-(4-((1-(3-(2,4-dioxotetrahydropyrimidin-1 (2H)-yl)phenyl)piperidin-4-yl)methyl)piperazin-1-yl)phenyl)amino)pyrimidin-4-yl)-2-methylbenzyl)-3-isopropoxyazetidine-1-carboxamide]
BTK degradation (%) 1 nM: 32.5% | BTK degradation (%) 10 nM: 92.0% | BTK degradation (%) 100 nM: 99.0%

Cc1cc(-c2ccnc(Nc3ccc(C4CCN(CC5CN(c6ccc7c(c6)C(=O)N(C6CCC(=O)NC6=O)C7=O)C5)CC4)cc3)n2)ccc1CNC(=O)c1cnn(C(C)(C)C)c1 (stereo not shown) [Example 45, 1-(tert-butyl)-N-(4-(2-((4-(1-((1-(2-(2,6-dioxopiperidin-3-yl)-1,3-dioxoisoindolin-5-yl)azetidin-3-yl)methyl)piperidin-4-yl)phenyl)amino)pyrimidin-4-yl)-2-methylbenzyl)-1H-pyrazole-4-carboxamide]
BTK degradation (%) 1 nM: 45.5% | BTK degradation (%) 10 nM: 89.5% | BTK degradation (%) 100 nM: 98.0%

Cc1cc(-c2ccnc(Nc3ccc(CN4CCN(CC5CCN(c6cccc(N7CCC(=O)NC7=O)c6)CC5)CC4)cc3)n2)ccc1CNC(=O)c1cn(C(C)(C)C)nn1 [Example 74, 1-(tert-butyl)-N-(4-(2-((4-((4-((1-(3-(2,4-dioxotetrahydropyrimidin-1 (2H)-yl)phenyl)piperidin-4-yl)methyl)piperazin-1-yl)methyl)phenyl)amino)pyrimidin-4-yl)-2-methylbenzyl)-1H-1,2,3-triazole-4-carboxamide]
BTK degradation (%) 1 nM: 43.0% | BTK degradation (%) 10 nM: 91.5% | BTK degradation (%) 100 nM: 96.5%

Cc1cc(-c2ccnc(Nc3cnn(C4CCN(CC5CN(c6ccc7c(c6)C(=O)N(C6CCC(=O)NC6=O)C7=O)C5)CC4)c3)n2)ccc1CNC(=O)c1cn(C(C)(C)C)nn1 (stereo not shown) [Example 40, 1-(tert-butyl)-N-(4-(2-((1-(1-((1-(2-(2,6-dioxopiperidin-3-yl)-1,3-dioxoisoindolin-5-yl)azetidin-3-yl)methyl)piperidin-4-yl)-1H-pyrazol-4-yl)amino)pyrimidin-4-yl)-2-methylbenzyl)-1H-1,2,3-triazole-4-carboxamide]
BTK degradation (%) 1 nM: 69.5% | BTK degradation (%) 10 nM: 95.5% | BTK degradation (%) 100 nM: 98%
